According to US5538882A, “Variant-type carbohydrate hydrolase, variant gene of the enzyme and method for producing oligosaccharide using the enzyme” (priority 1993, dated 1996):

Legend:
Settings in all cases: substrate 3KB-G5-CNP, hydrolysis
[1] = target: Saccharomycopsis fibuligera α-amylase (Sfamy) variant SfamyY83W, Y83W, SEQ ID NO: 4 (Saccharomycopsis fibuligera, UniProt P21567, Y109W)
Description: (§1) Furthermore, using a substrate with both its non-reducing end terminus and its reducing end terminus modified, i.e. 3KB-G5 -CNP (chloronitrophenyl maltopentaose wherein the hydroxyl group at position 3 of the glucose residue at the non-reducing end terminus is ketobutylated; manufactured by Ono Pharmaceutical Company), the hydrolysis activities of the wild-type enzyme and the variant-type enzymes were determined. 3KB-G5 -CNP cannot function as a substrate for transglycosylation reaction because of the modification of both of the termini, and therefore, only the hydrolysis activity can be assayed.

[2] = target: Saccharomycopsis fibuligera α-amylase (Sfamy) variant SfamyY83F, Y83F, SEQ ID NO: 2 (Saccharomycopsis fibuligera, UniProt P21567, A249P/Y109F)
Description: as §1

[3] = target: Saccharomycopsis fibuligera α-amylase (Sfamy) variant SfamyY83L, Y83L, SEQ ID NO: 6 (Saccharomycopsis fibuligera, UniProt P21567, Y109L)
Description: as §1

[4] = target: Saccharomycopsis fibuligera α-amylase (Sfamy) variant SfamyY83N, Y83N, SEQ ID NO: 8 (Saccharomycopsis fibuligera, UniProt P21567, Y109N)
Description: as §1

[5] = target: T1, Saccharomycopsis fibuligera α-amylase (Sfamy), wild type (Saccharomycopsis fibuligera, UniProt P21567)
T1 sequence (P21567 27-494): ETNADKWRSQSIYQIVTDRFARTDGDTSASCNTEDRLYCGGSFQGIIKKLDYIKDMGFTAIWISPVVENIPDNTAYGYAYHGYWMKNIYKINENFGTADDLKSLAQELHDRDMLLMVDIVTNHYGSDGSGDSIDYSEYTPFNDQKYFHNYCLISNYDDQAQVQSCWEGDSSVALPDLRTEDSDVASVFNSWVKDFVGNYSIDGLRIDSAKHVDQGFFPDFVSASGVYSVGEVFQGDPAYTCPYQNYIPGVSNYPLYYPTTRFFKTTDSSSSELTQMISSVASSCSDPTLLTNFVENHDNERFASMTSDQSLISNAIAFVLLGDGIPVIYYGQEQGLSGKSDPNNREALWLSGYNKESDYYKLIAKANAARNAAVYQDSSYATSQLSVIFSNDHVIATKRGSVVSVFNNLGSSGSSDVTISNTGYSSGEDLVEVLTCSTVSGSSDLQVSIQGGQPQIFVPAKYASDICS
Description: as §1

Sequence of Saccharomycopsis fibuligera α-amylase (Sfamy) variant SfamyY83F, Y83F, SEQ ID NO: 2 (P21567 27-494 Y109F/A249P): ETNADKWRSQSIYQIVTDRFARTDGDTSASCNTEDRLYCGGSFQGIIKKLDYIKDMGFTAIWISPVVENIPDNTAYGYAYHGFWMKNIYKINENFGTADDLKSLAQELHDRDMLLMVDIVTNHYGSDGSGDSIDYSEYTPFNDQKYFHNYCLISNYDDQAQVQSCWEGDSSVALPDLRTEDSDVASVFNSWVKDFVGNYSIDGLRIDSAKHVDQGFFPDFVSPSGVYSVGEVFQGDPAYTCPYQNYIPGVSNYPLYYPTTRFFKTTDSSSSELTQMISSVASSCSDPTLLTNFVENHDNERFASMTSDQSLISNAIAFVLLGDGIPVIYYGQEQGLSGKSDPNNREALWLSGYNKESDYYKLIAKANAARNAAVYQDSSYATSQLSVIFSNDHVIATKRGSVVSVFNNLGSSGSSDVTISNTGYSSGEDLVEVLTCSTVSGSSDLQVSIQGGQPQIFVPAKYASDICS
Sequence of Saccharomycopsis fibuligera α-amylase (Sfamy) variant SfamyY83W, Y83W, SEQ ID NO: 4 (P21567 27-494 Y109W): as the sequence (P21567 27-494 Y109F/A249P) above, with F83W, P223A counted along it
Sequence of Saccharomycopsis fibuligera α-amylase (Sfamy) variant SfamyY83N, Y83N, SEQ ID NO: 8 (P21567 27-494 Y109N): as the sequence (P21567 27-494 Y109F/A249P) above, with F83N, P223A counted along it
Sequence of Saccharomycopsis fibuligera α-amylase (Sfamy) variant SfamyY83L, Y83L, SEQ ID NO: 6 (P21567 27-494 Y109L): as the sequence (P21567 27-494 Y109F/A249P) above, with F83L, P223A counted along it

## CC(=O)CC1OC[C@H]2O[C@H](O[C@H]3[C@H](O)[C@@H](O)[C@@H](O[C@H]4[C@H](O)[C@@H](O)[C@@H](O[C@H]5[C@H](O)[C@@H](O)[C@@H](O[C@H]6[C@H](O)[C@@H](O)[C@H](Oc7ccc([N+](=O)[O-])cc7Cl)O[C@@H]6CO)O[C@@H]5CO)O[C@@H]4CO)O[C@@H]3CO)[C@H](O)[C@@H](O)[C@@H]2O1 (stereo partly drawn) [3KB-G5 -CNP]
[1]
  Km: 150 µM
  kcat: 2.17 s⁻¹
  kcat/Km: 14500 M⁻¹ s⁻¹
[2]
  Km: 130 µM
  kcat: 2.5 s⁻¹
  kcat/Km: 20000 M⁻¹ s⁻¹
[3]
  Km: 120 µM
  kcat: 0.183 s⁻¹
  kcat/Km: 1550 M⁻¹ s⁻¹
[4]
  Km: 190 µM
  kcat: 0.267 s⁻¹
  kcat/Km: 1430 M⁻¹ s⁻¹
[5]
  Km: 60 µM
  kcat: 15.3 s⁻¹
  kcat/Km: 250000 M⁻¹ s⁻¹
